Counter-ions that a name gives are not always drawn.
Assays:
Bovin spleen cathepsin B = molecular target: T1, Bovin spleen cathepsin B (Bos taurus, UniProt P07688); test: Cathepsin B unmasking of Z-Phe-Lys-PABC-DOX (Test III); assay type: biochemical, bovine; conditions: pH 5.0 acetate buffer, about 37° C., [Substrate]=40 μM, [Cathepsin B]=ca. 41 nM
T1 construct: purchased Sigma; host or cells: bovine spleen

[1] = Human plasma stability of Z-Phe-Lys-PABC-DOX (Test IV); assay type: in vitro ADME; conditions: freshly drawn human plasma
Experimental: Aliquots (50 μl) were periodically removed and diluted with cold methanol (100 μl). The samples were centrifuged and the resulting liquid injected into the HPLC (conditions as above). Enough DOX was added to a separate sample of plasma to give a theoretical release of 1% from the substrate. This was successfully detected using the same methods.

HCT116 colon line = test: In vitro cytotoxicity assay (3H-thymidine uptake), HCT116; assay type: cell-based, human; conditions: antigen-negative HCT116, 2 hours exposure
Experimental: All dilutions were performed in quadruplicate.

[2] = system: L2987 human lung carcinoma xenografts; test: Antitumor activity against established L2987 human tumor xenografts (Test VI); assay type: in vivo, mice
Experimental: The BR96-PEP-DOX conjugate (MR=4.41) was evaluated in vivo (Table 1) against L2987 human lung carcinoma xenografts. Therapy was initiated 14 days after tumor implant when the tumors were approximately 75 mm 3 in size.

cathepsin B = cathepsin B (Bos taurus, UniProt P07688)
Experimental: Bovin spleen cathepsin B (Sigma, EC 3.4.22.1, MW ca. 40,000) (10 units) was dissolved in 1 ml pH 5.0 acetate buffer (25 mM acetate+1 mM EDTA), giving a solution roughly 13.7 M. 6 μl of the enzyme solution was incubated with 12 μl of an activating solution (30 mM dithiothreitol and 15 mM EDTA) for about 15 minutes at room temperature. To this was added 2 ml of pH 5.0 acetate buffer (25 mM acetate with 1 mM EDTA) which had been incubated at about 37° C., followed by 8 μl of a 10 mM solution of Z-Phe-Lys-PABC-DOX in methanol ([Substrate]=40 μM, [Cathepsin B]=ca. 41 nM). The mixture was incubated at about 37° C., and aliquots were periodically removed and injected into the HPLC (C-18 column; 80:20 methanol/pH 2.8 triethylammonium formate (50 mM) buffer; 1 ml/min.; 495 mn detection wavelength).

A2780 ovarian line = conditions: A2780, 2 hours exposure, 3H-thymidine uptake
Excerpt: (§1) L2987 is a lung adenocarcinoma line obtained from I. Hellstrom (Bristol-Myers Squibb, Seattle, Wash.). The HCT116 colorectal tumor line was obtained from M. Brattain (Baylor Inst., Tex.). A2780 is an ovarian carcinoma line obtained from K. Scanlon (National Cancer Institute).
(§2) Monolayer cultures of human carcinoma cells were harvested using trypsin-EDTA (GIBCO, Grand Island, N.Y.), and the cells counted and resuspended to 1×10^5 /ml in RPMI-1640 containing 10% heat inactivated fetal calf serum (RPMI-10% FCS). Cells (0.1 ml/well) were added to each well of 96 well microtiter plates and incubated overnight at about 37° C. in a humidified atmosphere of 5% CO2. Media was removed from the plates and serial dilutions of DOX or MAb-DOX conjugates added to the walls. All dilutions were performed in quadruplicate. Cells were exposed to DOX or MAb-DOX conjugates for about 2 hours at about 37° C. in a humidified atmosphere of 5% CO2. Plates were then centrifuged (200×g, 5 min.), the drug or conjugate removed, and the cells washed 3× with RPMI-10% FCS. The cells were cultured in RPMI-10% FCS (37° C., 5% CO2) for an additional 48 hours. At this time the cells were pulsed for about 2 hours with 1.0 uCi/well of ^3 H-thymidine (New England Nuclear, Boston, Mass.).

L2987 lung line = conditions: L2987, 2 hours exposure, 3H-thymidine uptake
Excerpt: as §1, §2

[3] = 0.31 mg/kg DOX, 20 mg/kg BR96 per injection
[4] = 0.63 mg/kg DOX, 39 mg/kg BR96 per injection
[5] = 1.25 mg/kg DOX, 78 mg/kg BR96 per injection
[6] = 2.5 mg/kg DOX, 156 mg/kg BR96 per injection
[7] = 5 mg/kg DOX, 312 mg/kg BR96 per injection
[8] = 10 mg/kg DOX, 625 mg/kg BR96 per injection
[9] = 20 mg/kg DOX, 1250 mg/kg BR96 per injection

COc1cccc2c1C(=O)c1c(O)c3c(c(O)c1C2=O)C[C@@](O)(C(=O)CO)C[C@@H]3O[C@H]1C[C@H](NC(=O)OCc2ccc(NC(=O)[C@H](CCCCN)NC(=O)[C@H](Cc3ccccc3)NC(=O)OCc3ccccc3)cc2)[C@H](O)[C@H](C)O1 [Z-Phe-Lys-PABC-DOX, Z-Phe-Lys-PABC-DOX-HCl]
half-life of release of free DOX (Bovin spleen cathepsin B): 7 to 9 min | free DOX detected in plasma ([1]; over 7 hours): No free DOX was detected | half-life ([1]; no release over 7 hours): > 350 h

BR96-succinimidocaproyl-phenylalanine-lysine-p-aminovenzyl-carbamoyloxy-doxorubicin [BR96-DOX]
in vitro activity (HCT116 colon line): not active | % Tumor Regressions Complete [2, 3]: 0% | % Tumor Regressions Partial [2, 3]: 0% | Log Cell Kill [2, 3]: 0.2 | % Tumor Regressions Complete [2, 4]: 0% | % Tumor Regressions Partial [2, 4]: 0% | Log Cell Kill [2, 4]: 0.3 | % Tumor Regressions Complete [2, 5]: 10% | % Tumor Regressions Partial [2, 5]: 10% | Log Cell Kill [2, 5]: 2.4 | % Tumor Regressions Complete [2, 6]: 90% | % Tumor Regressions Partial [2, 6]: 10% | Log Cell Kill [2, 6]: > 7 | % Tumor Regressions Complete [2, 7]: 100% | % Tumor Regressions Partial [2, 7]: 0% | Log Cell Kill [2, 7]: > 7 | % Tumor Regressions Complete [2, 8]: 89% | % Tumor Regressions Partial [2, 8]: 11% | Log Cell Kill [2, 8]: > 7 | % Tumor Regressions Complete [2, 9]: 100% | % Tumor Regressions Partial [2, 9]: 0% | Log Cell Kill [2, 9]: > 7 | activity and tolerability in vivo ([2]; doses of 1.25-20 mg/kg equivalent DOX/injection): active and tolerated | activity compared with optimized DOX ([2]; doses of ≥2.5 mg/kg equivalent DOX/injection): significantly more active than optimized DOX | half-life of release of free DOX (cathepsin B; cathepsin B, pH 5.3, about 37° C., HPLC): about 3 hours | t1/2 of DOX release by cathepsin B (cathepsin B; pH 5.3 (37° C.)): 3.0 h | in vitro potency, fold less potent than unconjugated DOX (A2780 ovarian line): approximately 50 fold | in vitro potency compared with unconjugated DOX (L2987 lung line): equivalent to that of unconjugated DOX

COc1cccc2c1C(=O)c1c(O)c3c(c(O)c1C2=O)C[C@@](O)(C(=O)CO)C[C@@H]3O[C@H]1C[C@H](N)[C@H](O)[C@H](C)O1 [DOX, Doxorubicin, reference compound]
in vitro activity (HCT116 colon line): sensitive | % Tumor Regressions Complete ([2]; DOX 6 mg/kg/injection): 0% | % Tumor Regressions Partial ([2]; DOX 6 mg/kg/injection): 0% | Log Cell Kill ([2]; DOX 6 mg/kg/injection): 1.5 | % Tumor Regressions Complete ([2]; DOX 8 mg/kg/injection): 10% | % Tumor Regressions Partial ([2]; DOX 8 mg/kg/injection): 0% | Log Cell Kill ([2]; DOX 8 mg/kg/injection): 2.4

Source: patent US6214345A, “Lysosomal enzyme-cleavable antitumor drug conjugates” (Bristol-Myers Squibb Co., priority 1993, dated 2001)
